According to article PMC3933693, “Novel Inhibitors of Mitochondrial sn-Glycerol 3-phosphate Dehydrogenase” (PLoS ONE, 2014):

Tests used:
[1] = system: skeletal muscle mitochondria; assay: Mitochondrial membrane potential (ΔΨm, TMRM) powered by glycerol phosphate; assay type: biochemical, rat; details: 80 μM; 16.7 mM glycerol phosphate, 4 µM rotenone, nigericin
[2] = target: T1, mGPDH (Rattus norvegicus, UniProt P35571); assay: Superoxide/H2O2 production by mGPDH in isolated skeletal muscle mitochondria (Amplex UltraRed); assay type: biochemical; details: for IC50: Fig. 4 structure/activity microplate assay, 0.08–80 µM, estimated, means of two replicates, read-out: mGPDH H2O2 production IC50; for inhibition at 80 µM: read-out: mGPDH H2O2 production (% change at 80 μM)
T1 construct: Activity of mGPDH in frozen-thawed skeletal muscle mitochondria was measured; from tissue; host or cells: skeletal muscle mitochondria
T1 sequence (P35571 43-727): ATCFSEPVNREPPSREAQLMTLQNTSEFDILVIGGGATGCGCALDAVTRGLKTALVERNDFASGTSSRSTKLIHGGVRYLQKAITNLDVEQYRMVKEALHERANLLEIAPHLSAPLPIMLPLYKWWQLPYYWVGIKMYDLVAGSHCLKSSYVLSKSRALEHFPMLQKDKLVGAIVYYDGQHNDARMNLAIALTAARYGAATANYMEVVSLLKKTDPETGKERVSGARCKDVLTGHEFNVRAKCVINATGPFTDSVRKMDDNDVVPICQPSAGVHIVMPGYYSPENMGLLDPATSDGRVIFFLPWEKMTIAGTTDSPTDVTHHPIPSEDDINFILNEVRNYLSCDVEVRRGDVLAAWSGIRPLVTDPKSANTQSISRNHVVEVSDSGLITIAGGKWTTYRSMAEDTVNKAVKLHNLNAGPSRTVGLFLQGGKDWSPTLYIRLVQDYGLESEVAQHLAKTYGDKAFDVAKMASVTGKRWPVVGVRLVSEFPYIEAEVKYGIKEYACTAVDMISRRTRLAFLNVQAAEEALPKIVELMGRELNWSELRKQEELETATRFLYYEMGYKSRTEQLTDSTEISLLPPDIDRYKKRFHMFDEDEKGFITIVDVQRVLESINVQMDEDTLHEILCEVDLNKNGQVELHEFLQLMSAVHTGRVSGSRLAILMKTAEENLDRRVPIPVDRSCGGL

[3] = system: skeletal muscle mitochondria; assay: Mitochondrial membrane potential (ΔΨm, TMRM) powered by glutamate plus malate; assay type: biochemical, rat; details: 80 μM, 5 mM glutamate, 5 mM malate; for ΔΨm with Glu + Mal + Nig (% change at 80 μM): with nigericin; for ΔΨm with Glu + Mal (% change at 80 μM): without nigericin
[4] = system: ubiquinone-binding site of complex I (site IQ); assay: Site-specific H2O2 production from site IQ in skeletal muscle mitochondria; assay type: biochemical, rat; details: 80 μM; 5 mM succinate;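 also: H2O2 from superoxide detected by Amplex UltraRed fluorescence with added superoxide dismutase and horseradish peroxidase, endpoint read 30–40 min after substrate addition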

SMILES | IC50 [2] [µM] | lowering of potency versus mGPDH ROS production relative to iGP-1 ([2]; ortho- to para- positioning) | inhibition at 80 µM [2] [%] | ΔΨm with GP + Nig (% change at 80 μM) [1] [%] | ΔΨm with Glu + Mal + Nig (% change at 80 μM) [3] [%] | ΔΨm with Glu + Mal (% change at 80 μM) [3] [%] | IQ H2O2 production with 5 mM Suc (% change at 80 μM) [4] [%]
O=C(O)CCC(=O)Nc1ccc(-c2nc3ccccc3s2)cc1 [iGP-3] | 15 |  | 50 | -26 | 20 | 148 | -69
O=C(Nc1ccc(-c2nc3ccccc3[nH]2)cc1)c1ccco1 [iGP-13] | 80 |  | 37 | 13 | 10 | 23 | -82
O=C(O)CCC(=O)Nc1ccc(-c2nc3cc(NC(=O)CCC(=O)O)ccc3[nH]2)cc1 [iGP-7] |  |  | 21 | 4 | 2 | 25 | 3
C=C(C)C(=O)Nc1ccc(-c2nc3ccccc3[nH]2)cc1 [iGP-11] |  |  | 5 | 1 | -1 | 54 | -54
Cc1ccc2[nH]c(-c3ccc(NC(=O)CCC(=O)O)cc3)nc2c1 [iGP-4] | 5 |  | 69 | -35 | 11 | 49 | -20
c1ccc2[nH]c(-c3ccc(-c4nc5ccccc5[nH]4)cc3)nc2c1 [iGP-10] |  |  | 0 | -78 | -78 | -58 | -77

Now from value to compound, other results behind:

IC50 [2] [µM] | lowering of potency versus mGPDH ROS production relative to iGP-1 ([2]; ortho- to para- positioning) | inhibition at 80 µM [2] [%] | SMILES | ΔΨm with GP + Nig (% change at 80 μM) [1] [%] | ΔΨm with Glu + Mal + Nig (% change at 80 μM) [3] [%] | ΔΨm with Glu + Mal (% change at 80 μM) [3] [%] | IQ H2O2 production with 5 mM Suc (% change at 80 μM) [4] [%]
50 | more than 5 fold | 44 | O=C(O)CCC(=O)Nc1cccc(-c2nc3ccccc3[nH]2)c1 [iGP-8] | -7 | 1 | 3 | -14
 |  | 7 | O=C(Nc1ccc(-c2nc3ccccc3[nH]2)cc1)C1CC1 [iGP-16] | 2 | 1 | 4 | -24
 |  | -2 | O=C(O)CCC(=O)Nc1ccc(Cl)cc1 [iGP-18] | -1 | -3 | -9 | 6
 |  | -6 | CCCCCCNC(=O)CCC(=O)O [iGP-17] | 0 | -1 | -1 | -1
3 |  | 55 | O=C(O)CCC(=O)Nc1ccc(-c2nc3cc(C(=O)c4ccccc4)ccc3[nH]2)cc1 [iGP-6] | -59 | 17 | 93 | -28
